20 compounds from US8143288B2, “Inhibitors of HCV replication” (priority 2005, dated 2012) can be followed below.

The subject of the experiment is HCV 1b-377-neo replicon cells. The experiment is described as follows: HCV replicon FRET assay. The format is cell-based. Particulars: Hepatitis C virus; HCV replicon; read-out: Activity (EC50).

For orientation: EC50 means the concentration that produces a half-maximal response. Regarding `CN(C)c1ccc(C(=O)N2CCC[C@H]2C(=O)Nc2ccc(/C=C/c3ccc(NC(=O)[C@@H]4CCCN4C(=O)c4ccc(N(C)C)cc4)cc3)cc2)cc1` [Example 82], the EC50 lay within 1 to 10 µM.
Take `O=C(Nc1ccc(/C=C/c2ccc(NC(=O)[C@@H]3CCCN3C(=O)Cc3ccccc3)cc2)cc1)c1ccccc1NCc1ccccc1` [Example 267]: the EC50 lay in the range of 0.1 to 1 µM.
To `COc1ccc(Cl)cc1C(=O)N1CCC[C@H]1C(=O)Nc1ccc(/C=C/c2ccc(NC(=O)[C@@H]3CCCN3C(=O)c3cc(Cl)ccc3OC)cc2)cc1` [Example 138] belongs 1 to 10 µM; to `CN(C)[C@@H](C(=O)N1CCC[C@H]1C(=O)Nc1ccc(/C=C/c2ccc(NC(=O)[C@@H]3CCCN3C(=O)[C@@H](c3ccccc3)N(C)C)cc2)cc1)c1ccccc1` [Example 296], 0.0001 to 0.09 µM.
Next, `COc1ccccc1C(=O)N1CCC[C@H]1C(=O)Nc1ccc(/C=C/c2ccc(NC(=O)[C@@H]3CCCN3C(=O)c3ccccc3OC)cc2)cc1` [Example 133]: 1 to 10 µM; `O=C(Nc1ccc(/C=C/c2ccc(NC(=O)[C@@H]3CCCN3C(=O)c3ccccc3NCc3ccccc3)cc2)cc1)[C@@H]1CCCN1C(=O)Cc1cccnc1` [Example 151]: 0.1 to 1 µM.
In the case of `O=C(Nc1ccc(/C=C/c2ccc(NC(=O)[C@@H]3CCCN3C(=O)Cc3c[nH]cn3)cc2)cc1)[C@@H]1CCCN1C(=O)Cc1c[nH]cn1` [Example 42], the EC50 lay within 1 to 10 µM.
In the case of `CN1CCC[C@H]1C(=O)N1CCC[C@H]1C(=O)Nc1ccc(/C=C/c2ccc(NC(=O)[C@@H]3CCCN3C(=O)[C@@H]3CCCN3C)cc2)cc1` [Example 157], the concentration giving a half-maximal response (EC50) fell in the range of 1 to 10 µM.
With `O=C(Nc1ccc(/C=C/c2ccc(NC(=O)[C@@H]3CCCN3C(=O)c3ccccc3N3CCCCC3)cc2)cc1)[C@@H]1CCCN1C(=O)c1ccccc1N1CCCCC1` [Example 172], the EC50 lay in the range of 1 to 10 µM.
For the compound `O=C(Nc1ccc(/C=C/c2ccc(NC(=O)[C@@H]3CCCN3C(=O)c3ccccc3NCc3ccccc3)cc2)cc1)[C@@H]1CCCN1C(=O)c1ccccc1NCc1ccccc1` [Example 141], the EC50 was 1 to 10 µM.
`O=C(Nc1ccc(/C=C/c2ccc(NC(=O)[C@@H]3CCCN3C(=O)c3ccccn3)cc2)cc1)[C@@H]1CCCN1C(=O)c1ccccn1` [Example 176]: the EC50 lay within 1 to 10 µM.
As for `CN(C)CC(=O)N1CCC[C@H]1C(=O)Nc1ccc(/C=C/c2ccc(NC(=O)[C@@H]3CCCN3C(=O)c3ccc(N(C)C)cc3)cc2)cc1` [Example 83], the EC50 was in the range of 0.1 to 1 µM.
For `CC(=O)N1CC=C[C@H]1C(=O)Nc1ccc(/C=C/c2ccc(NC(=O)[C@@H]3C=CCN3C(=O)Cc3ccccn3)cc2)cc1` [Example 216], the 50% effective concentration (EC50) lay within 0.0001 to 0.09 µM.
For the compound `CCC(=O)N1CCC[C@H]1C(=O)Nc1ccc(/C=C/c2ccc(NC(=O)[C@@H]3CCCN3C(=O)Cc3cccs3)cc2)cc1` [Example 103], the EC50 lay within 0.0001 to 0.09 µM.
On to `CNc1ccccc1C(=O)N1CCC[C@H]1C(=O)Nc1ccc(/C=C/c2ccc(NC(=O)[C@@H]3CCCN3C(=O)c3ccccc3NC)cc2)cc1` [Example 140], for which the EC50 lay in the range of 0.1 to 1 µM.
As to `O=C(Nc1ccc(/C=C/c2ccc(NC(=O)[C@@H]3CCCN3C(=O)[C@H]3CCCO3)cc2)cc1)C1CCC1` [Example 262], the EC50 is 0.1 to 1 µM.
`O=C(Nc1ccc(/C=C/c2ccc(NC(=O)[C@@H]3C[C@@H](O)CN3C(=O)OCc3ccccc3)cc2)cc1)[C@@H]1CCCN1C(=O)Cc1ccccc1` [Example 275]: the concentration giving a half-maximal response (EC50) is 0.0001 to 0.09 µM.
Consider `CC(C)(C)C(=O)N1CCC[C@H]1C(=O)Nc1ccc(/C=C/c2ccc(NC(=O)[C@@H]3CCCN3C(=O)C(C)(C)C)cc2)cc1` [Example 53], for which the EC50 lay in the range of 0.0001 to 0.09 µM.
On to `CC(C)(C)OC(=O)NC1(C(=O)N2CCC[C@H]2C(=O)Nc2ccc(/C=C/c3ccc(NC(=O)[C@@H]4CCCN4C(=O)C4(NC(=O)OC(C)(C)C)CC4)cc3)cc2)CC1` [Example 55], for which the 50% effective concentration (EC50) was 0.1 to 1 µM.
`O=C(Nc1ccc(/C=C/c2ccc(NC(=O)C3CC(=O)N(Cc4ccc(Cl)cc4)C3)cc2)cc1)C1CC(=O)N(Cc2ccc(Cl)cc2)C1` (centres unmarked) [Example 12]: the EC50 lay in the range of 1 to 10 µM.
